Reference: article PMC6554663, “Pharmaceutical Effects of Inhibiting the Soluble Epoxide Hydrolase in Canine Osteoarthritis” (Frontiers in Pharmacology, 2019)
Values after ≈ are worked out from the molar mass of the structure shown. Values joined by “and” are separate entries in the source; they are usually repeats but may differ in a detail not shown here. Equal values may be shown once. “Also recorded” adds a separate entry of the source. Read-outs that look alike come from different tables or passages of the source.

Experiments:
[1] = Solubility of sEHI; format: physicochemical
Method: […] The non-dissolved compounds were filtered through a 0.22 μm centrifuge filter at 40°C and the supernatant was further diluted 10 times with methanol. The samples were analyzed by LC/MS-MS.

[2] = system: aged beagle dogs with OA; assay: Tolerability, adverse events and body weight in the dog study; format: in vivo
Method: The study was conducted as a blinded, parallel matched-group design. Dogs were randomized into groups based on pretreatment pain scores and each group was randomly assigned a treatment. Prior to randomization, each dog was assessed for arthritis by radiograph to assess the severity of OA by presence of osteophytes, subchondral sclerosis or joint effusion each scored on a scale of 0 (least) to 3 (worst) for each of 12 joints. Severity of the radiograph score was included in the randomization protocol and distributed between the groups, and there were no statistical differences between the averages of each group. Individual radiograph scores can be found in Supplementary Table S2. […] Vehicle group consisted of 5 mL PEG300 in capsule. Concurrent medications were not allowed and not needed during the study.

[3] = Blood and synovial fluid concentrations in treated osteoarthritic dogs; format: in vivo, dog; settings: for Blood concentration D5 / Synovial fluid concentration D1 / Synovial fluid concentration D5: po, qd x 5, detected EC3039, individual dogs;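 for Synovial fluid concentration D1: synovial fluid also sampled on Day 1 after the pain assessment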
Method: (§1) Eight satellite dogs (2 per each group) had whole blood collected for PK analysis on study Days […]. On Day 1, blood was collected immediately prior to dosing, and again at 0.25, 0.5, 1, 2, 4, 6, and 8 (±5 min) after dosing. On Day 2 through 4, blood was collected 0.5 h (±5 min) after dosing. On Day 5 blood was collected immediately prior to dosing, and again at 0.25, 0.5, 1, 2, 4, 6, 8 (±5 min), 24, 48, and 72 h (±30 min) post treatment. […] For all blood samples, a minimum of 3 mL of whole blood was collected from a suitable vein as per written and approved standard operating procedures. The blood was transferred to K2EDTA (spray dried) blood tube and inverted gently multiple times to ensure proper mixing of the blood and anticoagulant. On study Day 5, synovial fluid was collected by arthrocentesis immediately after the subject completed the questionnaire (approximately […] after dosing). Subjects were anesthetized as per written and approved Standard Operating Procedures. A minimum of 0.1 mL of synovial fluid was collected from each subject. Samples were frozen in an upright position and stored at -80°C ± 4°C before being shipped to UC Davis for analysis.
Pain and function were assessed by a questionnaire answered by blinded technicians based on observation of study animals housed at InterVivo. The survey was adapted from the canine brief pain inventory (CBPI), which was developed based on clinical questionnaires in which owners score the function and pain level of their pets with existing pain conditions ([Brown et al., 2007]). Modifications to the questionnaire attempted to account for differences between owner pain evaluation of pets and pain evaluation of laboratory dogs by technical staff. For survey administration, blinded technicians attempted to elicit objective behavior-specific measures of function and pain level across a variety of normal canine behaviors (e.g., walking, trotting, galloping, rearing, and stair-climbing, etc.). For this, one technician was responsible for soliciting the relevant behaviors from a dog using encouragement and/or food rewards, while the evaluating technician scored function and observable pain using the modified CBPI questionnaire. Subjects were tested daily on Days -7 through -3, to develop baseline scores, and again on Days 1 through 5 administered 1.5 h after dosing. Dosing occurred in the morning, and observations were recorded 1.5 h after dosing, to limit time-of-day variability. Questions are listed in Supplementary Table S3. Animals in treatment groups had blood and synovial fluid collected ∼2 h after the last dose on day 5 (immediately following the study questionnaire) to confirm plasma concentrations in treated animals. Full pharmacokinetic assessments were collected from a satellite group of animals so as not to interfere with pain assessment.

[4] = Microsomal stability; format: in vitro ADME, dog; settings: 60 min, 37°C
Method: Male and female dog liver microsomes (Xenotech) were diluted in potassium phosphate buffer (0.1M, pH 7.4), MgCl2 (3.15 mM), and sodium EDTA (1.05 mM) to a final protein concentration of 1 mg/mL. Compounds were added at 0.1 mM in methanol at 1% and microsomes were activated with 5% (v/v) NADPH regenerating system (100 μL sodium phosphate buffer (0.1M, pH 7.4), 50 μL, glucose-6-phosphate in sodium phosphate buffer (0.1M, pH 7.4), 50 μL NADP+ in sodium phosphate (0.1M, pH 7.4), and 50 μL of 100 Units/mL of […]). […] Compounds were incubated without microsomes or NADPH as negative controls.

[5] = PK analysis in satellite dogs; format: in vivo, dog; settings: for half-life / AUC(0-t) / Cmax: whole blood; for AUC(0-t) / Cmax: po
Method: as §1
For PK analysis in the satellite group, individual parameters were calculated by fitting blood concentrations to a non-compartmental analysis using Kinetica software (Thermo Fisher Scientific version 5.1). Using the log-linear trapezoidal method, the area under the curve were calculated and were extrapolated to infinity using the last measured plasma concentration (Clast), defined as the timepoint collected 72 h after the last dose or 8 hr after the first dose on day 1, divided by the terminal slope (λz).

[6] = female, beagle, dog, 1 mg/kg, dosed EC3039 1 mg/kg oral qd, female dog, Day 1, detected EC3039, blood
[7] = female, beagle, dog, 1 mg/kg, dosed EC3039 1 mg/kg oral qd, female dog, Day 5, detected EC3039, blood
[8] = female, beagle, dog, 5 mg/kg, dosed EC3039 5 mg/kg oral qd, female dog, Day 1, detected EC3039, blood
[9] = female, beagle, dog, 5 mg/kg, dosed EC3039 5 mg/kg oral qd, female dog, Day 5, detected EC3039, blood
[10] = male, beagle, dog, 1 mg/kg, dosed EC3039 1 mg/kg oral qd, male dog, Day 1, detected EC3039, blood
[11] = male, beagle, dog, 1 mg/kg, dosed EC3039 1 mg/kg oral qd, male dog, Day 5, detected EC3039, blood
[12] = male, beagle, dog, 5 mg/kg, dosed EC3039 5 mg/kg oral qd, male dog, Day 1, detected EC3039, blood

With `CN(C(=O)N[C@H]1CC[C@H](Oc2ccc(C(=O)O)cc2)CC1)c1ccc(OC(F)(F)F)cc1` [EC3039, trans-4-{4-[3-methyl-3-(4-trifluoromethoxy-phenyl)-ureido]-cyclohexyloxy}-benzoic acid] the solubility ([1]; PEG300, organic solvent or mixture) was 99 ± 1 mg/mL (≈ 219 mM), the solubility at 24 h ([1]; aqueous buffer, thermodynamic from solid, PBS pH 7.4, 40°C, 24 h) was 0.13 ± 0.015 mg/mL (≈ 0.287 mM) and the “health case noted during treatment: relation to treatment” value ([2]; EC3039 1 mg/kg, individual dogs, 1 mg/kg) was “EC3039 – 1mg/kg / Not Related; also recorded: EC3039 – 1mg/kg / Unlikely Related”. The “health case noted during treatment: relation to treatment” value ([2]; EC3039 5 mg/kg, individual dog, moist dermatitis of ventral neck) was “EC3039 – 5mg/kg / Not Related”, the “Blood concentration D5” value ([3]; dosed EC3039 1 mg/kg, 1 mg/kg) was 0.126 µg/mL and 0.176 µg/mL and 5.34 µg/mL and 0.347 µg/mL and 0.346 µg/mL and 0.081 µg/mL and 0.408 µg/mL and 0.328 µg/mL and the “Synovial fluid concentration D1” value ([3]; dosed EC3039 1 mg/kg, 1 mg/kg) was 1220 ng/mL and 2710 ng/mL and 4100 ng/mL and 3350 ng/mL and 3100 ng/mL and 1390 ng/mL and 3430 ng/mL and 2100 ng/mL. For the same molecule, the “Synovial fluid concentration D5” value ([3]; dosed EC3039 1 mg/kg, 1 mg/kg) was 1630 ng/mL and 1480 ng/mL and 11900 ng/mL and 1840 ng/mL and 1440 ng/mL and 586 ng/mL and 2190 ng/mL and 1930 ng/mL, the “Blood concentration D5” value ([3]; dosed EC3039 5 mg/kg, 5 mg/kg) was 0.859 µg/mL and 0.672 µg/mL and 5.55 µg/mL and 6.25 µg/mL and 0.722 µg/mL and 6.19 µg/mL and 5.65 µg/mL and 0.929 µg/mL and the “Synovial fluid concentration D1” value ([3]; dosed EC3039 5 mg/kg, 5 mg/kg) was 5850 ng/mL and 13570 ng/mL and 14290 ng/mL and 14240 ng/mL and 5220 ng/mL and 14300 ng/mL and 14700 ng/mL and 9520 ng/mL. The “Synovial fluid concentration D5” value ([3]; dosed EC3039 5 mg/kg, 5 mg/kg) was 5830 ng/mL and 4640 ng/mL and 9960 ng/mL and 12400 ng/mL and 16100 ng/mL and 11700 ng/mL and 5960 ng/mL, the “sEHI in blood and synovial fluid relative to dogs treated with EC1728” value ([3]; high dose group (5 mg/kg)) was about 10 × and the “sEHI in blood and synovial fluid relative to dogs treated with EC1728” value ([3]; low dose group (1 mg/kg)) was “approximately 2 ×”. The “% Parent + NADPH” value ([4]; female dog liver microsomes) was 85% and 85 ± 2%, the “% Parent − NADPH” value ([4]; female dog liver microsomes) was 93 ± 5% and the “% Parent − NADPH” value ([4]; male dog liver microsomes) was 97 ± 4%. The “EC3039 in blood of dogs administered EC1728” value ([5]; EC1728 at 1 mg/kg or 5 mg/kg) was “no detectable amounts”, the “blood concentrations relative to IC50 for sEH” value ([5]; all treatment groups, duration of the study) was “exceeded the IC50” and the “fold increase in AUC after fivefold increase in dose” value ([5]; beagle, dog, in vivo) was about 18 fold. The “fold increase in Cmax after fivefold increase in dose” value ([5]; beagle, dog, in vivo) was 30 to 40 fold, the half-life ([5]; beagle, dog, oral, satellite dogs, range over both compounds, Table 3, read-out: half-life) was 24 to 40 h and the half-life ([5]; beagle, dosed EC3039 1 mg/kg oral qd, female dog, Day 5, detected EC3039, blood, read-out: T1/2 (converted)) was 40 h. It also gave a half-life ([5]; beagle, dosed EC3039 1 mg/kg oral qd, male dog, Day 5, detected EC3039, blood, read-out: T1/2 (converted)) of 33 h, a half-life ([5]; beagle, dosed EC3039 5 mg/kg oral qd, female dog, Day 5, detected EC3039, blood, read-out: T1/2 (converted)) of 25 h and a half-life ([5]; beagle, dosed EC3039 5 mg/kg oral qd, male dog, Day 5, detected EC3039, blood, read-out: T1/2 (converted)) of 27 h. The “portion metabolized by demethylation to form EC1728” value ([5]; dogs dosed EC3039) was under 10%, the AUC(0-t) [5, 6] was 3.94 µg·h/mL and the Cmax [5, 6] was 0.568 µg/mL. For the same molecule, the AUC(0-t) [5, 7] was 361 µg·h/mL, the Cmax [5, 7] was 17.3 µg/mL and the AUC(0-t) [5, 8] was 67.2 µg·h/mL. The Cmax [5, 8] was 18 µg/mL, the AUC(0-t) [5, 9] was 589 µg·h/mL and the Cmax [5, 9] was 30.9 µg/mL. It also gave an AUC(0-t) [5, 10] of 2.49 µg·h/mL, a Cmax [5, 10] of 0.4 µg/mL and an AUC(0-t) [5, 11] of 72.1 µg·h/mL. It also gave a Cmax [5, 11] of 2.3 µg/mL, an AUC(0-t) [5, 12] of 46.5 µg·h/mL and a Cmax [5, 12] of 16.9 µg/mL. It also gave a Cmax ([5]; male, beagle, dog, 5 mg/kg, dosed EC3039 5 mg/kg oral qd, male dog, Day 5, detected EC3039, blood) of 32.1 µg/mL.
